From ChEMBL document CHEMBL4507268 (2021)

How the values were obtained:
[1] = biological target: Alpha-1D adrenergic receptor (Homo sapiens) (UniProt P25100); conditions: Compound concentration 10.0 uM
[2] = biological target: Casein kinase I isoform delta (Homo sapiens) (UniProt P48730); conditions: Compound concentration 1.0 uM
[3] = biological target: Testis-specific serine/threonine-protein kinase 4 (Homo sapiens) (UniProt Q6SA08); conditions: Compound concentration 1.0 uM
[4] = biological target: Protein kinase C theta type (Homo sapiens) (UniProt Q04759); conditions: Compound concentration 1.0 uM
[5] = biological target: Serine/threonine-protein kinase 33 (Homo sapiens) (UniProt Q9BYT3); conditions: Compound concentration 1.0 uM
[6] = biological target: NT-3 growth factor receptor (Homo sapiens) (UniProt Q16288); conditions: Compound concentration 1.0 uM
[7] = biological target: Tyrosine-protein kinase CSK (Homo sapiens) (UniProt P41240); conditions: Compound concentration 1.0 uM
[8] = biological target: Epithelial discoidin domain-containing receptor 1 (Homo sapiens) (UniProt Q08345); conditions: Compound concentration 1.0 uM
[9] = biological target: Cyclin-dependent kinase 5/CDK5 activator 1 (Homo sapiens) (UniProt Q00535+Q15078); conditions: Compound concentration 1.0 uM
[10] = biological target: T1, Serine/threonine-protein kinase NLK (Homo sapiens) (UniProt Q9UBE8); conditions: Compound concentration 1.0 uM
T1 sequence (whole entry): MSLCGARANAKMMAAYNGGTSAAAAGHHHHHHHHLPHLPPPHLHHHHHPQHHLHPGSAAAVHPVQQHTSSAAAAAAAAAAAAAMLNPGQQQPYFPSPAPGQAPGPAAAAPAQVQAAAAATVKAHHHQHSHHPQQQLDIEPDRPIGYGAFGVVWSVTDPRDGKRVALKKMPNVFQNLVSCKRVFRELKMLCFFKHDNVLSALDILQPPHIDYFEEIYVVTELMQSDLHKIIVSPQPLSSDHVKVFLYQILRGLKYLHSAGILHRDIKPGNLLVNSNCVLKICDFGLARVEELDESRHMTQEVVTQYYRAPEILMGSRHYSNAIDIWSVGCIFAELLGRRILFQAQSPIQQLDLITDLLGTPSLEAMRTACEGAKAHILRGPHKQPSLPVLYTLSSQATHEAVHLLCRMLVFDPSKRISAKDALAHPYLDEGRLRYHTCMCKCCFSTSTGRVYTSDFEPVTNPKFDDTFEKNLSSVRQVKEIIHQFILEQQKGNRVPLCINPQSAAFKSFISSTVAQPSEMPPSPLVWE

[11] = biological target: Serine/threonine-protein kinase PAK 1 (Homo sapiens) (UniProt Q13153); conditions: Compound concentration 1.0 uM
[12] = biological target: Cyclin-dependent kinase 14/Cyclin-Y (Homo sapiens) (UniProt O94921+Q8ND76); conditions: Compound concentration 1.0 uM
[13] = biological target: PAS domain-containing serine/threonine-protein kinase (Homo sapiens) (UniProt Q96RG2); conditions: Compound concentration 1.0 uM
[14] = biological target: Glycogen synthase kinase-3 beta (Homo sapiens) (UniProt P49841); conditions: Compound concentration 1.0 uM
[15] = biological target: Casein kinase I isoform gamma-1 (Homo sapiens) (UniProt Q9HCP0); conditions: Compound concentration 1.0 uM
[16] = biological target: T2, Inhibitor of nuclear factor kappa-B kinase subunit epsilon (Homo sapiens) (UniProt Q14164); conditions: Compound concentration 1.0 uM
T2 sequence (whole entry): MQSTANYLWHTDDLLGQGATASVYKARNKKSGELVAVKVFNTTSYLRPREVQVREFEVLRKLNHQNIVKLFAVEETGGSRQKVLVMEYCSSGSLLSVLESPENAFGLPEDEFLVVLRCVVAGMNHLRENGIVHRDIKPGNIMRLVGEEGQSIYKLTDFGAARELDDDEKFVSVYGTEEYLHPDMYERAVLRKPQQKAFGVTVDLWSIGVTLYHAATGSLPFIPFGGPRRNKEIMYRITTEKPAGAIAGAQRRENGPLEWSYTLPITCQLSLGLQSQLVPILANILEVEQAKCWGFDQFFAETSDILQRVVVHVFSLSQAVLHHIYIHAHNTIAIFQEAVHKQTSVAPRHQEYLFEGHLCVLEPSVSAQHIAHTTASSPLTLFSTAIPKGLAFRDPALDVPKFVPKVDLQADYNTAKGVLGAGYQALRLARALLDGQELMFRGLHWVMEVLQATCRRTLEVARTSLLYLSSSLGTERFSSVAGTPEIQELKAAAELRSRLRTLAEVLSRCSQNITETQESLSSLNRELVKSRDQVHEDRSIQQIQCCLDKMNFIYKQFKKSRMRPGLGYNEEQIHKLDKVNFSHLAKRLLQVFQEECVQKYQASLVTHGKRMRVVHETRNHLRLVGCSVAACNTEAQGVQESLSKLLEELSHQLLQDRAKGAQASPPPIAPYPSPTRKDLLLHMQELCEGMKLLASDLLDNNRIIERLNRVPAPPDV

[17] = biological target: Serine/threonine-protein kinase MARK1 (Homo sapiens) (UniProt Q9P0L2); conditions: Compound concentration 1.0 uM
[18] = biological target: Calcium/calmodulin-dependent protein kinase type II subunit alpha (Homo sapiens) (UniProt Q9UQM7); conditions: Compound concentration 1.0 uM
Sequence of Calcium/calmodulin-dependent protein kinase type II subunit alpha (Homo sapiens) (Q9UQM7 whole entry): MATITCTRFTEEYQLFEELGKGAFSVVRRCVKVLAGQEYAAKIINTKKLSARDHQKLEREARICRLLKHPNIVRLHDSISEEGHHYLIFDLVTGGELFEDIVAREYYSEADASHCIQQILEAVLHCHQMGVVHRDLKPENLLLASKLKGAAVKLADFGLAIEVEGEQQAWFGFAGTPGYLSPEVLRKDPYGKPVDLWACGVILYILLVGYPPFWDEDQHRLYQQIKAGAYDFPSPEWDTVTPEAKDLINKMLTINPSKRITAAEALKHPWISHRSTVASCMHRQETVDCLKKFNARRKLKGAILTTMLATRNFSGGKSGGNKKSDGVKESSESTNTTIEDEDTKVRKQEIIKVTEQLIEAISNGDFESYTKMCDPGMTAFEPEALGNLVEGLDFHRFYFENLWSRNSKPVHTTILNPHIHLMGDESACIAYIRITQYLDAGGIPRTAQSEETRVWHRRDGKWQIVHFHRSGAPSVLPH

Sequence of Serine/threonine-protein kinase 33 (Homo sapiens) (Q9BYT3 whole entry, looked up): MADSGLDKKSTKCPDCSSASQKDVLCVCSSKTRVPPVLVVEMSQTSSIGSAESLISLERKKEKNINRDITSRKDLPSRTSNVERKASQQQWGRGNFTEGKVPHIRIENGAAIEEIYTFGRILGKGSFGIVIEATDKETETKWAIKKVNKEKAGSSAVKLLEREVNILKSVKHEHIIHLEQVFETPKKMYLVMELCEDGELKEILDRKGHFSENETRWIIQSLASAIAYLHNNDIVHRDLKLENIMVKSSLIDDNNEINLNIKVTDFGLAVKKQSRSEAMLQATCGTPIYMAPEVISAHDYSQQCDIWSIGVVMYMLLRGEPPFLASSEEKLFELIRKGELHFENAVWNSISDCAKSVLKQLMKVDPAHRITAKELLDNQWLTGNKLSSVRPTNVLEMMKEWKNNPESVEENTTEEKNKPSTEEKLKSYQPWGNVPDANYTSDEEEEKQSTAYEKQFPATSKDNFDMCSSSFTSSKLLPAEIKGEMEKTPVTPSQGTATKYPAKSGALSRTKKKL
Sequence of NT-3 growth factor receptor (Homo sapiens) (Q16288 32-839 limits assumed): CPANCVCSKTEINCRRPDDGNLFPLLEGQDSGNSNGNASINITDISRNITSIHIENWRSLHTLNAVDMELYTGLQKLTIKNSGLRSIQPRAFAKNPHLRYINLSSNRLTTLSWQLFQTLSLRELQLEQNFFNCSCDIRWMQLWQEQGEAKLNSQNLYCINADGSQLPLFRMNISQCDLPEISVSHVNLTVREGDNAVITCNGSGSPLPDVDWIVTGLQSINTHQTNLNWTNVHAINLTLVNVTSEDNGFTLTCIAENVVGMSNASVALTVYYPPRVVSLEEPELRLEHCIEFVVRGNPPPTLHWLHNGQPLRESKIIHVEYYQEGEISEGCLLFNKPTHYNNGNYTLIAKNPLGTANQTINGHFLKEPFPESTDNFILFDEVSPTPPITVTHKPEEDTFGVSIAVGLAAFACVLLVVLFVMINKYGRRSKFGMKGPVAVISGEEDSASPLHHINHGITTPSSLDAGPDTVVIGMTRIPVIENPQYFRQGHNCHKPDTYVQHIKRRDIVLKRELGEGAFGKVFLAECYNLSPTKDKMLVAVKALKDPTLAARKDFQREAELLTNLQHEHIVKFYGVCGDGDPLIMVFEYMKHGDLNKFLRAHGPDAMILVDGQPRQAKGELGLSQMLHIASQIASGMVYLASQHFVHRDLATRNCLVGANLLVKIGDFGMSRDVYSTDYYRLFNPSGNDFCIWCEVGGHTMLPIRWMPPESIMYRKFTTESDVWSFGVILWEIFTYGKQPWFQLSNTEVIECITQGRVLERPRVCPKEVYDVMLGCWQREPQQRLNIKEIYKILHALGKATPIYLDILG
Sequence of Epithelial discoidin domain-containing receptor 1 (Homo sapiens) (Q08345 whole entry, the tested form may be a part): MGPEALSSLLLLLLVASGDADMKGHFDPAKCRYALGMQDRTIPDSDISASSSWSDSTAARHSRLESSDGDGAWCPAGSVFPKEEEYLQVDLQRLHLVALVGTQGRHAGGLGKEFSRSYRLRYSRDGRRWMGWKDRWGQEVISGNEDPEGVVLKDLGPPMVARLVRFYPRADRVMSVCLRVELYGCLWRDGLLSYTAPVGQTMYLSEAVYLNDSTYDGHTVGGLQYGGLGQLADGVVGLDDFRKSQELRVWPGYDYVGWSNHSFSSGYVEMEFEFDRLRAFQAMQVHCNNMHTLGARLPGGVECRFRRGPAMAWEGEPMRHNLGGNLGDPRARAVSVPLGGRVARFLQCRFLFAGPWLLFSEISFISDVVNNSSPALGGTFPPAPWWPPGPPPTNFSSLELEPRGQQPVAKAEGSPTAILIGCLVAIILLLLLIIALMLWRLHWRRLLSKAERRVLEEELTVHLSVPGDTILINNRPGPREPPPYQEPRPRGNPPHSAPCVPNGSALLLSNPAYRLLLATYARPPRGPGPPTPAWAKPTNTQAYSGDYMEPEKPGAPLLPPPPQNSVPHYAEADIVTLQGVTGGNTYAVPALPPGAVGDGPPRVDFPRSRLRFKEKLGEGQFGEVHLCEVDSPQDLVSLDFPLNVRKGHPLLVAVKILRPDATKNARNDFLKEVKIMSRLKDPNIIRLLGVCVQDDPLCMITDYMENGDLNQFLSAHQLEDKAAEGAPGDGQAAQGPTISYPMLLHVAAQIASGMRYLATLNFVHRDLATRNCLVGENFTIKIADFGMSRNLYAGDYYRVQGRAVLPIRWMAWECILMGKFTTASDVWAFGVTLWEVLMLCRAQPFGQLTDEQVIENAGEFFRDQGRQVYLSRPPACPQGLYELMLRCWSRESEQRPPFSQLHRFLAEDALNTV
Sequence of Serine/threonine-protein kinase MARK1 (Homo sapiens) (Q9P0L2 whole entry, looked up): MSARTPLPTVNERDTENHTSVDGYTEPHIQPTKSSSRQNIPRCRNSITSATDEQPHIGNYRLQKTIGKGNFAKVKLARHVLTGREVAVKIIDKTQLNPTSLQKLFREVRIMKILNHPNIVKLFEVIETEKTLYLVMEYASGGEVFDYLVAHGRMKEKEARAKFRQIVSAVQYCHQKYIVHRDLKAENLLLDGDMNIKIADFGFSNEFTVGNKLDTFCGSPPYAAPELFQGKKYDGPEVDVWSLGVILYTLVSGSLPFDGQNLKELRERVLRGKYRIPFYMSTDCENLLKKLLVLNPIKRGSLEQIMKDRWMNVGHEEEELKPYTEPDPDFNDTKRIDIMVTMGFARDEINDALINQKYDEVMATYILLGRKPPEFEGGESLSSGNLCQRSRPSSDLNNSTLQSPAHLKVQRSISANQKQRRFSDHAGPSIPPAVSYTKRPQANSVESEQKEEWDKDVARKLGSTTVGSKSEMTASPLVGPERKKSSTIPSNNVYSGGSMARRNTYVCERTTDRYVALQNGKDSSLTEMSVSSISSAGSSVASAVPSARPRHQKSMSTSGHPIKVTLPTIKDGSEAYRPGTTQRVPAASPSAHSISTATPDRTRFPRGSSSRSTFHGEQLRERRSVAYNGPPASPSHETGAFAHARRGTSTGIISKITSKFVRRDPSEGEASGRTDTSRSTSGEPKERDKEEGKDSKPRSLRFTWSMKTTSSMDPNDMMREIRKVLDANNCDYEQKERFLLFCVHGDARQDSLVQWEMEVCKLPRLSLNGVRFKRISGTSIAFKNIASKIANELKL
Sequence of Serine/threonine-protein kinase PAK 1 (Homo sapiens) (Q13153 whole entry): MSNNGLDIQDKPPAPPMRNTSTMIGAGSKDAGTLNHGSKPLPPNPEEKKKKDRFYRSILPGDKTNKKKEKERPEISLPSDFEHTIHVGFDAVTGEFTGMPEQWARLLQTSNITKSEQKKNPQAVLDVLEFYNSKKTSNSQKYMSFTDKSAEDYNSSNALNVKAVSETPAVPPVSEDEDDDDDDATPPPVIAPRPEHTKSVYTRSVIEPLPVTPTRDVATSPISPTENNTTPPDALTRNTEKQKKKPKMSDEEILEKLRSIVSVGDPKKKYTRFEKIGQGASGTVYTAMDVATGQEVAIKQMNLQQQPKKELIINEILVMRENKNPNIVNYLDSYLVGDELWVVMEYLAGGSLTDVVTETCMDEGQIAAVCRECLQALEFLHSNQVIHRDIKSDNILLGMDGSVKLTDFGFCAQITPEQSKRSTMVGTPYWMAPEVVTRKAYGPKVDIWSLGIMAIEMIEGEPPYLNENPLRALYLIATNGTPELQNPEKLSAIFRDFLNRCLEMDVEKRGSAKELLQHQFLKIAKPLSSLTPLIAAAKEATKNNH
Sequence of Protein kinase C theta type (Homo sapiens) (Q04759 whole entry, looked up): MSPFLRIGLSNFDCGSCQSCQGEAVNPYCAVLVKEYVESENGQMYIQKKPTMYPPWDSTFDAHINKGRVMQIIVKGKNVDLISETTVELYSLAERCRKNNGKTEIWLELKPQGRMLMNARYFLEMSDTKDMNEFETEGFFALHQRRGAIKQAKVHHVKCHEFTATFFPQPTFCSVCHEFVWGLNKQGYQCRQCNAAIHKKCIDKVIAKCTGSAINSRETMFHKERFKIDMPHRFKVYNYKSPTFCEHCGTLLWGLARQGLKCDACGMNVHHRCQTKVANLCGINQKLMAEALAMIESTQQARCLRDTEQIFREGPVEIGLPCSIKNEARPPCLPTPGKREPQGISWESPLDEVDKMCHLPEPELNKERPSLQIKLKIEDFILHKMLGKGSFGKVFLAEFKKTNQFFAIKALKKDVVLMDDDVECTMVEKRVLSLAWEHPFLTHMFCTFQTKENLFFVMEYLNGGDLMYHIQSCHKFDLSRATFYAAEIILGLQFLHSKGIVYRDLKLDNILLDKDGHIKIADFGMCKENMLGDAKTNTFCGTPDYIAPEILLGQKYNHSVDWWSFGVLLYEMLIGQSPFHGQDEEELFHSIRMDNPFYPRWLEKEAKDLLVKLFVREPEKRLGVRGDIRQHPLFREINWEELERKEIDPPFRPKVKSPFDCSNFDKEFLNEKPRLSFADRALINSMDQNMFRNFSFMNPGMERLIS

Cc1nc(C2CCN(C(=O)c3ccc(OC(F)(F)F)cc3N)CC2)c2ncc(N3CCN(C)CC3)cc2n1 [BAY-693]
inactive: inhibition [1] 5.29%

CN1CCN(c2cnc3c(C4CCN(C(=O)c5ccc(OC(F)(F)F)cc5N)CC4)ncnc3c2)CC1 [BAY-885]
inactive: % residual kinase activity [2] 116% | % residual kinase activity [3] 115% | % residual kinase activity [4] 115% | % residual kinase activity [5] 103% | % residual kinase activity [6] 123% | % residual kinase activity [7] 102% | % residual kinase activity [8] 100% | % residual kinase activity [9] 107% | % residual kinase activity [10] 111% | % residual kinase activity [11] 95% | % residual kinase activity [12] 117% | % residual kinase activity [13] 107% | % residual kinase activity [14] 99% | % residual kinase activity [15] 105% | % residual kinase activity [16] 107% | % residual kinase activity [17] 112% | % residual kinase activity [18] 108%
